# pIC50: −log10 of the molar value.
# Molecular target: PDE1A (Homo sapiens, UniProt P54750)
# Assay: PDE1A dose response, Cyclic Nucleotide Phosphodiesterase Assay Kit from Biomol (colorimetric)
# Type: biochemical
# Settings: purified PDE1A enzyme, 100 μM cAMP
# Method in brief: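 Purified PDE1A hydrolysed 100 μM cAMP with 5′-nucleotidase in Tris 20 mM pH 7.4 with calmodulin, Ca2+, Mg2+, 45 min at 37° C. Released phosphate read by malachite-green absorbance at 615 nm. Duplicate 8-point 1/3 dilutions from 20 μM, 1% DMSO; 10 μM vardenafil defined 100% inhibition.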
row,pIC50,Compound
1,7.00 to 9.00,"CC(C)(C)n1ncc2c(=O)[nH]c(C3CN(C(=O)Oc4ccc5c(c4)OCO5)C3)nc21 [Example 119, benzo[d][1,3]dioxol-5-yl 3-(1-tert-butyl-4-oxo-4,5-dihydro-1H-pyrazolo[3,4-d]pyrimidin-6-yl)azetidine-1-carboxylate]"
2,7.00 to 9.00,"O=c1[nH]c(C2CN(c3nc(-c4ccccc4)co3)C2)nc2c1cnn2C1CCCCC1 [Example 132, 1-cyclohexyl-6-(1-(4-phenyloxazol-2-yl)azetidin-3-yl)-1H-pyrazolo[3,4-d]pyrimidin-4(5H)-one]"
3,6.30 to 7.00,"CC(=O)c1ccccc1N1CC(c2nc3c(cnn3C3CCCCC3)c(=O)[nH]2)C1 [Example 151, 6-(1-(2-acetoylphenyl)azetidin-3-yl)-1-cyclohexyl-1H-pyrazolo[3,4-d]pyrimidin-4(5H)-one]"
4,6.00 to 6.30,"Cc1nn(C2CCCCC2)c2nc(C3CCCN(C(=O)Oc4ccccc4)C3)[nH]c(=O)c12 (stereo not shown) [Example 124, phenyl 3-(1-cyclohexyl-3-methyl-4-oxo-4,5-dihydro-1H-pyrazolo[3,4-d]pyrimidin-6-yl)piperidine-1-carboxylate]"
5,5.82 to 6.00,"O=c1[nH]c(C2CCCN(Cc3ccccc3)C2)nc2c1cnn2C1CCCCC1 (stereo not shown) [Example 176, 6-(1-Benzylpiperidin-3-yl)-1-cyclohexyl-1H-pyrazolo[3,4-d]pyrimidin-4(5H)-one]"
6,7.00 to 9.00,"CC(C)(C)n1ncc2c(=O)[nH]c(C3CN(C(=O)OCC4CCCCC4)C3)nc21 [Example 117, cyclohexylmethyl 3-(1-tert-butyl-4-oxo-4,5-dihydro-1H-pyrazolo[3,4-d]pyrimidin-6-yl)azetidine-1-carboxylate]"
7,6.30 to 7.00,"O=c1[nH]c(C2CN(c3ncc(CN4CCCCC4)s3)C2)nc2c1cnn2C1CCCCC1 [Example 135, 1-cyclohexyl-6-(1-(5-(piperidin-1-ylmethyl)thiazol-2-yl)azetidin-3-yl)-1H-pyrazolo[3,4-d]pyrimidin-4(5H)-one]"
8,5.82 to 6.00,"Cc1nn(C2CCCCC2)c2nc(C3CCCN(S(=O)(=O)Cc4ccccc4)C3)[nH]c(=O)c12 (stereo not shown) [Example 103, 6-(1-(benzylsulfonyl)piperidin-3-yl)-1-cyclohexyl-3-methyl-1H-pyrazolo[3,4-d]pyrimidin-4(5H)-one]"
9,6.30 to 7.00,"CC(C)(C)n1ncc2c(=O)[nH]c(C3CN(CC(=O)c4ccccc4)C3)nc21 [Example 174, 1-tert-Butyl-6-(1-(2-oxo-2-phenylethyl)azetidin-3-yl)-1H-pyrazolo[3,4-d]pyrimidin-4(5H)-one]"
10,5.82 to 6.00,"CC(=O)Nc1ccc(C(=O)N2CCCC(c3nc4c(c(C)nn4C4CCCCC4)c(=O)[nH]3)C2)cc1 (stereo not shown) [Example 113, N-(4-(3-(1-cyclohexyl-3-methyl-4-oxo-4,5-dihydro-1H-pyrazolo[3,4-d]pyrimidin-6-yl)piperidine-1-carbonyl)phenyl)acetamide]"
11,5.82 to 6.00,"Cc1nn(C2CCCCC2)c2nc(C3CCCN(C(=O)c4cccs4)C3)[nH]c(=O)c12 (stereo not shown) [Example 101, 1-cyclohexyl-3-methyl-6-(1-(thiophene-2-carbonyl)piperidin-3-yl)-1H-pyrazolo[3,4-d]pyrimidin-4(5H)-one]"
12,6.30 to 7.00,"O=c1[nH]c(C2CN(c3ccc(C(F)(F)F)cc3)C2)nc2c1cnn2C1CCCCC1 [Example 152, 1-cyclohexyl-6-(1-(4-(trifluoromethyl)phenyl)azetidin-3-yl)-1H-pyrazolo[3,4-d]pyrimidin-4(5H)-one]"
13,6.00 to 6.30,"O=c1[nH]c(C2CN(c3ncc(Br)s3)C2)nc2c1cnn2C1CCCCC1 [Example 140, 6-(1-(5-bromothiazol-2-yl)azetidin-3-yl)-1-cyclohexyl-1H-pyrazolo[3,4-d]pyrimidin-4(5H)-one]"
14,6.00 to 6.30,"O=c1[nH]c(C2CN(Cc3nc4ccccc4s3)C2)nc2c1cnn2C1CCCCC1 [Example 172, 6-(1-(Benzo[d]thiazol-2-ylmethyl)azetidin-3-yl)-1-cyclohexyl-1H-pyrazolo[3,4-d]pyrimidin-4(5H)-one]"
15,6.30 to 7.00,"O=c1[nH]c(C2CN(c3nc(CN4CCOCC4)cs3)C2)nc2c1cnn2C1CCCCC1 [Example 142, 1-cyclohexyl-6-(1-(4-(morpholinomethyl)thiazol-2-yl)azetidin-3-yl)-1H-pyrazolo[3,4-d]pyrimidin-4(5H)-one]"

# Second part, the compound before the results:
row,Compound,pIC50
1,"Cn1cncc1CNC(=O)N1CC(c2nc3c(cnn3C3CCCCC3)c(=O)[nH]2)C1 [Example 74, 3-(1-cyclohexyl-4-oxo-4,5-dihydro-1H-pyrazolo[3,4-d]pyrimidin-6-yl)-N-((1-methyl-1H-imidazol-5-yl)methyl)azetidine-1-carboxamide]",6.30 to 7.00
2,"O=C(NC1CCOCC1)N1CC(c2nc3c(cnn3C3CCCCC3)c(=O)[nH]2)C1 [Example 47, 3-(1-cyclohexyl-4-oxo-4,5-dihydro-1H-pyrazolo[3,4-d]pyrimidin-6-yl)-N-(tetrahydro-2H-pyran-4-yl)azetidine-1-carboxamide]",6.30 to 7.00
3,"O=C(Nc1ccc(F)cc1)N1CC(c2nc3c(cnn3C3CCCCC3)c(=O)[nH]2)C1 [Example 19, 3-(1-cyclohexyl-4-oxo-4,5-dihydro-1H-pyrazolo[3,4-d]pyrimidin-6-yl)-N-(4-fluorophenyl)azetidine-1-carboxamide]",7.00 to 9.00
4,"O=C(Nc1ccc(C(F)(F)F)cc1)N1CC(c2nc3c(cnn3C3CCCCC3)c(=O)[nH]2)C1 [Example 35, 3-(1-cyclohexyl-4-oxo-4,5-dihydro-1H-pyrazolo[3,4-d]pyrimidin-6-yl)-N-(4-(trifluoromethyl)phenyl)azetidine-1-carboxamide]",7.00 to 9.00
5,"Cc1nn(C(C)(C)C)c2nc(C3CN(C(=O)Nc4ccc5c(c4)OCO5)C3)[nH]c(=O)c12 [Example 1, N-(Benzo[d][1,3]dioxol-5-yl)-3-(1-tert-butyl-3-methyl-4-oxo-4,5-dihydro-1H-pyrazolo[3,4-d]pyrimidin-6-yl)azetidine-1-carboxamide]",7.00 to 9.00
6,"Cc1nn(C2CCCCC2)c2nc(C3CCCN(S(=O)(=O)c4cn(C)cn4)C3)[nH]c(=O)c12 (stereo not shown) [Example 98, 1-cyclohexyl-3-methyl-6-(1-(1-methyl-1H-imidazol-4-ylsulfonyl)piperidin-3-yl)-1H-pyrazolo[3,4-d]pyrimidin-4(5H)-one]",5.82 to 6.00
7,"CC(C)(C)n1ncc2c(=O)[nH]c(C3CN(C(=O)Nc4ccc(F)cc4)C3)nc21 [Example 16, 3-(1-tert-butyl-4-oxo-4,5-dihydro-1H-pyrazolo[3,4-d]pyrimidin-6-yl)-N-(4-fluorophenyl)azetidine-1-carboxamide]",7.00 to 9.00
8,"CN(C)c1ccc(NC(=O)N2CC(c3nc4c(cnn4C4CCCCC4)c(=O)[nH]3)C2)cc1 [Example 9, 3-(1-cyclohexyl-4-oxo-4,5-dihydro-1H-pyrazolo[3,4-d]pyrimidin-6-yl)-N-(4-(dimethylamino)phenyl)azetidine-1-carboxamide]",7.00 to 9.00
9,"COc1cccc(C(=O)N2CCCC(c3nc4c(c(C)nn4C4CCC4)c(=O)[nH]3)C2)c1 (stereo not shown) [Example 78, 1-cyclobutyl-6-(1-(3-methoxybenzoyl)piperidin-3-yl)-3-methyl-1H-pyrazolo[3,4-d]pyrimidin-4(5H)-one]",6.00 to 6.30
10,"Cc1nn(-c2ccc(F)cc2)c2nc(C3CN(C(=O)Nc4ccccc4OC(F)F)C3)[nH]c(=O)c12 [Example 29, N-(2-(difluoromethoxy)phenyl)-3-(1-(4-fluorophenyl)-3-methyl-4-oxo-4,5-dihydro-1H-pyrazolo[3,4-d]pyrimidin-6-yl)azetidine-1-carboxamide]",7.00 to 9.00
11,"Cc1nn(C2CCCCC2)c2nc(C3CN(C(=O)Nc4ccccc4)C3)[nH]c(=O)c12 [Example 14, 3-(1-cyclohexyl-3-methyl-4-oxo-4,5-dihydro-1H-pyrazolo[3,4-d]pyrimidin-6-yl)-N-phenylazetidine-1-carboxamide]",7.00 to 9.00
12,"Cc1nn(C(C)(C)C)c2nc(C3CN(C(=O)NC4CCCCC4)C3)[nH]c(=O)c12 [Example 15, 3-(1-tert-butyl-3-methyl-4-oxo-4,5-dihydro-1H-pyrazolo[3,4-d]pyrimidin-6-yl)-N-cyclohexylazetidine-1-carboxamide]",7.00 to 9.00
13,"COc1ccc(C(=O)N2CCCC(c3nc4c(c(C)nn4C4CCCCC4)c(=O)[nH]3)C2)cc1 (stereo not shown) [Example 77, 1-cyclohexyl-6-(1-(4-methoxybenzoyl)piperidin-3-yl)-3-methyl-1H-pyrazolo[3,4-d]pyrimidin-4(5H)-one]",6.30 to 7.00
14,"Cc1nn(C(C)(C)C)c2nc(C3CN(C(=O)NCc4ccccc4)C3)[nH]c(=O)c12 [Example 22, N-benzyl-3-(1-tert-butyl-3-methyl-4-oxo-4,5-dihydro-1H-pyrazolo[3,4-d]pyrimidin-6-yl)azetidine-1-carboxamide]",7.00 to 9.00
15,"CN1CCN(c2ccc(NC(=O)N3CC(c4nc5c(cnn5C5CCCCC5)c(=O)[nH]4)C3)cc2)CC1 [Example 3, 3-(1-cyclohexyl-4-oxo-4,5-dihydro-1H-pyrazolo[3,4-d]pyrimidin-6-yl)-N-(4-(4-methylpiperazin-1-yl)phenyl)azetidine-1-carboxamide]",7.00 to 9.00
16,"Cc1nn(-c2ccccc2)c2nc(C3CCCN(C(=O)c4ccc(N(C)C)cc4)C3)[nH]c(=O)c12 (stereo not shown) [Example 80, 6-(1-(4-(dimethylamino)benzoyl)piperidin-3-yl)-3-methyl-1-phenyl-1H-pyrazolo[3,4-d]pyrimidin-4(5H)-one]",6.00 to 6.30
17,"O=C(Nc1ccc(F)c(F)c1)N1CC(c2nc3c(cnn3C3CCCCC3)c(=O)[nH]2)C1 [Example 20, 3-(1-cyclohexyl-4-oxo-4,5-dihydro-1H-pyrazolo[3,4-d]pyrimidin-6-yl)-N-(3,4-difluorophenyl)azetidine-1-carboxamide]",7.00 to 9.00
18,"COc1cccc(C(=O)N2CCCC(c3nc4c(c(C)nn4C4CCCCC4)c(=O)[nH]3)C2)c1 (stereo not shown) [Example 71, 1-cyclohexyl-6-(1-(3-methoxybenzoyl)piperidin-3-yl)-3-methyl-1H-pyrazolo[3,4-d]pyrimidin-4(5H)-one]",6.30 to 7.00
19,"CC(C)(C)NC(=O)N1CC(c2nc3c(cnn3C3CCCCC3)c(=O)[nH]2)C1 [Example 38, N-tert-butyl-3-(1-cyclohexyl-4-oxo-4,5-dihydro-1H-pyrazolo[3,4-d]pyrimidin-6-yl)azetidine-1-carboxamide]",7.00 to 9.00
